Measured values: the supplement of paper PMC10307832

Experiments:
Test in all cases: relative viability (nuclei count vs DMSO), 5 days (fraction); higher = more cells survive
[1] = compound: CC(=O)Nc1cccc(-n2c(=O)n(C3CC3)c(=O)c3c(Nc4ccc(I)cc4F)n(C)c(=O)c(C)c32)c1 [Trametinib] + CC1(C)CCC(c2ccc(Cl)cc2)=C(CN2CCN(c3ccc(C(=O)NS(=O)(=O)c4ccc(N[C@H](CCN5CCOCC5)CSc5ccccc5)c(S(=O)(=O)C(F)(F)F)c4)cc3)CC2)C1 [Navitoclax] (partner 0.5 µM)
Procedure, shortened: (§1)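 Lung cancer cell lines in 1536-well plates were dosed by pin tool the day after seeding, either with one drug alone or with a fixed anchor-drug dose plus five library-drug doses (not always all listed) in √10 steps. After 5 days, cells were fixed and their nuclei stained in one step (final 0.05% Triton X-100, 1% formaldehyde, 1 ug/ml Hoechst), then counted on 4× images. Relative viability is the nuclei count in treated wells divided by that in vehicle wells. Values are medians of duplicate plates.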

[2] = compound: CC(=O)Nc1cccc(-n2c(=O)n(C3CC3)c(=O)c3c(Nc4ccc(I)cc4F)n(C)c(=O)c(C)c32)c1 [Trametinib] + C[C@@H](Oc1cc(-c2cnn(C3CCNCC3)c2)cnc1N)c1c(Cl)ccc(F)c1Cl [Crizotinib] (partner 1 µM)
Procedure, shortened: as §1

[3] = compound: CC(=O)Nc1cccc(-n2c(=O)n(C3CC3)c(=O)c3c(Nc4ccc(I)cc4F)n(C)c(=O)c(C)c32)c1 [Trametinib] + Cc1cc(Nc2cc(N3CCN(C)CC3)nc(Sc3ccc(NC(=O)C4CC4)cc3)n2)n[nH]1 [Tozasertib] (partner 0.1 µM)
Procedure, shortened: as §1

[4] = compound: CN1C=C(C2=CC=CC=C21)/C=C\3/C4=C(C=CC=N4)NC3=O + Nc1nc2[nH]cc(CCc3ccc(C(=O)N[C@@H](CCC(=O)O)C(=O)O)cc3)c2c(=O)[nH]1 [Pemetrexed] (partner 0.2 µM)
Procedure, shortened: as §1

## NCI-H441
[1]; first compound 0.0025 µM
  relative viability: 0.761
[1]; first compound 0.007906 µM
  relative viability: 0.633
[1]; first compound 0.025 µM
  relative viability: 0.572
[1]; first compound 0.07906 µM
  relative viability: 0.312
[1]; first compound 0.25 µM
  relative viability: 0.278
[2]; first compound 0.0025 µM
  relative viability: 0.757
[2]; first compound 0.007906 µM
  relative viability: 0.691
[2]; first compound 0.025 µM
  relative viability: 0.608
[2]; first compound 0.07906 µM
  relative viability: 0.448
[2]; first compound 0.25 µM
  relative viability: 0.294
[3]; first compound 0.0025 µM
  relative viability: 0.647
[3]; first compound 0.007906 µM
  relative viability: 0.677
[3]; first compound 0.025 µM
  relative viability: 0.523
[3]; first compound 0.07906 µM
  relative viability: 0.461
[3]; first compound 0.25 µM
  relative viability: 0.525
[4]; first compound 0.02 µM
  relative viability: 0.275
[4]; first compound 0.06325 µM
  relative viability: 0.241
[4]; first compound 0.2 µM
  relative viability: 0.264
[4]; first compound 0.6325 µM
  relative viability: 0.285
[4]; first compound 2 µM
  relative viability: 0.251

## HOP-62
[1]; first compound 0.0025 µM
  relative viability: 1.05
[1]; first compound 0.007906 µM
  relative viability: 1.03
[1]; first compound 0.025 µM
  relative viability: 0.741
[1]; first compound 0.07906 µM
  relative viability: 0.617
[1]; first compound 0.25 µM
  relative viability: 0.198
[2]; first compound 0.0025 µM
  relative viability: 0.925
[2]; first compound 0.007906 µM
  relative viability: 0.932
[2]; first compound 0.025 µM
  relative viability: 0.581
[2]; first compound 0.07906 µM
  relative viability: 0.502
[2]; first compound 0.25 µM
  relative viability: 0.209
[3]; first compound 0.0025 µM
  relative viability: 0.419
[3]; first compound 0.007906 µM
  relative viability: 0.367
[3]; first compound 0.025 µM
  relative viability: 0.374
[3]; first compound 0.07906 µM
  relative viability: 0.232
[3]; first compound 0.25 µM
  relative viability: 0.203
[4]; first compound 0.02 µM
  relative viability: 0.285
[4]; first compound 0.06325 µM
  relative viability: 0.299
[4]; first compound 0.6325 µM
  relative viability: 0.357
[4]; first compound 2 µM
  relative viability: 0.366

## NCI-H1355
[1]; first compound 0.0025 µM
  relative viability: 0.764
[1]; first compound 0.007906 µM
  relative viability: 0.832
[1]; first compound 0.025 µM
  relative viability: 0.51
[1]; first compound 0.07906 µM
  relative viability: 0.563
[1]; first compound 0.25 µM
  relative viability: 0.414
[2]; first compound 0.0025 µM
  relative viability: 1.01
[2]; first compound 0.007906 µM
  relative viability: 0.869
[2]; first compound 0.025 µM
  relative viability: 0.645
[2]; first compound 0.07906 µM
  relative viability: 0.655
[2]; first compound 0.25 µM
  relative viability: 0.47
[3]; first compound 0.0025 µM
  relative viability: 0.588
[3]; first compound 0.007906 µM
  relative viability: 0.463
[3]; first compound 0.025 µM
  relative viability: 0.418
[3]; first compound 0.07906 µM
  relative viability: 0.394
[3]; first compound 0.25 µM
  relative viability: 0.318
[4]; first compound 0.02 µM
  relative viability: 0.885
[4]; first compound 0.06325 µM
  relative viability: 0.924
[4]; first compound 0.2 µM
  relative viability: 0.99
[4]; first compound 0.6325 µM
  relative viability: 0.916
[4]; first compound 2 µM
  relative viability: 0.851

## COR-L23
[1]; first compound 0.0025 µM
  relative viability: 0.977
[1]; first compound 0.007906 µM
  relative viability: 1.02
[1]; first compound 0.025 µM
  relative viability: 1.04
[1]; first compound 0.07906 µM
  relative viability: 0.694
[1]; first compound 0.25 µM
  relative viability: 0.475
[2]; first compound 0.0025 µM
  relative viability: 0.66
[2]; first compound 0.007906 µM
  relative viability: 0.682
[2]; first compound 0.025 µM
  relative viability: 0.665
[2]; first compound 0.07906 µM
  relative viability: 0.425
[2]; first compound 0.25 µM
  relative viability: 0.337
[3]; first compound 0.0025 µM
  relative viability: 0.193
[3]; first compound 0.007906 µM
  relative viability: 0.208
[3]; first compound 0.025 µM
  relative viability: 0.165
[3]; first compound 0.07906 µM
  relative viability: 0.178
[3]; first compound 0.25 µM
  relative viability: 0.149
[4]; first compound 0.02 µM
  relative viability: 0.197
[4]; first compound 0.06325 µM
  relative viability: 0.189
[4]; first compound 0.2 µM
  relative viability: 0.209
[4]; first compound 0.6325 µM
  relative viability: 0.18
[4]; first compound 2 µM
  relative viability: 0.19

## HCC-44
[1]; first compound 0.0025 µM
  relative viability: 1.03
[1]; first compound 0.007906 µM
  relative viability: 0.751
[1]; first compound 0.025 µM
  relative viability: 0.865
[1]; first compound 0.07906 µM
  relative viability: 0.805
[1]; first compound 0.25 µM
  relative viability: 0.446
[2]; first compound 0.0025 µM
  relative viability: 0.853
[2]; first compound 0.007906 µM
  relative viability: 0.916
[2]; first compound 0.025 µM
  relative viability: 0.763
[2]; first compound 0.07906 µM
  relative viability: 0.728
[2]; first compound 0.25 µM
  relative viability: 0.526
[3]; first compound 0.0025 µM
  relative viability: 0.897
[3]; first compound 0.007906 µM
  relative viability: 0.519
[3]; first compound 0.025 µM
  relative viability: 0.801
[3]; first compound 0.07906 µM
  relative viability: 0.594
[3]; first compound 0.25 µM
  relative viability: 0.228
[4]; first compound 0.02 µM
  relative viability: 0.58
[4]; first compound 0.06325 µM
  relative viability: 0.613
[4]; first compound 0.2 µM
  relative viability: 0.664
[4]; first compound 0.6325 µM
  relative viability: 0.648
[4]; first compound 2 µM
  relative viability: 0.636

## A-427
[1]; first compound 0.0025 µM
  relative viability: 0.989
[1]; first compound 0.007906 µM
  relative viability: 0.799
[1]; first compound 0.025 µM
  relative viability: 0.489
[1]; first compound 0.07906 µM
  relative viability: 0.545
[1]; first compound 0.25 µM
  relative viability: 0.296
[2]; first compound 0.0025 µM
  relative viability: 0.924
[2]; first compound 0.007906 µM
  relative viability: 0.757
[2]; first compound 0.025 µM
  relative viability: 0.659
[2]; first compound 0.07906 µM
  relative viability: 0.658
[2]; first compound 0.25 µM
  relative viability: 0.502
[3]; first compound 0.0025 µM
  relative viability: 0.217
[3]; first compound 0.007906 µM
  relative viability: 0.159
[3]; first compound 0.025 µM
  relative viability: 0.158
[3]; first compound 0.07906 µM
  relative viability: 0.166
[3]; first compound 0.25 µM
  relative viability: 0.173
[4]; first compound 0.02 µM
  relative viability: 0.981
[4]; first compound 0.06325 µM
  relative viability: 0.973
[4]; first compound 0.6325 µM
  relative viability: 0.94
[4]; first compound 2 µM
  relative viability: 0.983

## NCI-H520
[1]; first compound 0.0025 µM
  relative viability: 1.11
[1]; first compound 0.007906 µM
  relative viability: 1.15
[1]; first compound 0.025 µM
  relative viability: 1.04
[1]; first compound 0.07906 µM
  relative viability: 1.01
[1]; first compound 0.25 µM
  relative viability: 0.77
[2]; first compound 0.0025 µM
  relative viability: 0.752
[2]; first compound 0.007906 µM
  relative viability: 0.681
[2]; first compound 0.025 µM
  relative viability: 0.815
[2]; first compound 0.07906 µM
  relative viability: 0.733
[2]; first compound 0.25 µM
  relative viability: 0.557
[3]; first compound 0.0025 µM
  relative viability: 0.388
[3]; first compound 0.007906 µM
  relative viability: 0.46
[3]; first compound 0.025 µM
  relative viability: 0.473
[3]; first compound 0.07906 µM
  relative viability: 0.469
[3]; first compound 0.25 µM
  relative viability: 0.362
[4]; first compound 0.02 µM
  relative viability: 0.67
[4]; first compound 0.06325 µM
  relative viability: 0.53
[4]; first compound 0.2 µM
  relative viability: 0.698
[4]; first compound 0.6325 µM
  relative viability: 0.672
[4]; first compound 2 µM
  relative viability: 0.732

## LXF-289
[1]; first compound 0.0025 µM
  relative viability: 0.872
[1]; first compound 0.007906 µM
  relative viability: 0.755
[1]; first compound 0.025 µM
  relative viability: 0.721
[1]; first compound 0.07906 µM
  relative viability: 0.63
[1]; first compound 0.25 µM
  relative viability: 0.538
[2]; first compound 0.0025 µM
  relative viability: 0.738
[2]; first compound 0.007906 µM
  relative viability: 0.711
[2]; first compound 0.025 µM
  relative viability: 0.608
[2]; first compound 0.07906 µM
  relative viability: 0.531
[2]; first compound 0.25 µM
  relative viability: 0.353
[3]; first compound 0.0025 µM
  relative viability: 0.198
[3]; first compound 0.007906 µM
  relative viability: 0.174
[3]; first compound 0.025 µM
  relative viability: 0.208
[3]; first compound 0.07906 µM
  relative viability: 0.181
[3]; first compound 0.25 µM
  relative viability: 0.143
[4]; first compound 0.02 µM
  relative viability: 0.925
[4]; first compound 0.06325 µM
  relative viability: 0.913
[4]; first compound 0.2 µM
  relative viability: 0.928
[4]; first compound 0.6325 µM
  relative viability: 0.881
[4]; first compound 2 µM
  relative viability: 0.974
